Reference: ChEMBL document CHEMBL4261613, “Discovery of a potent orally bioavailable retinoic acid receptor-related orphan receptor-gamma-t (RORγt) inhibitor, S18-000003” (Bioorg Med Chem Lett, 2018)
In brackets after ≈: the same amount, converted by molar mass.

Tests used:
[1] = biological target: T1, Nuclear receptor ROR-gamma (Homo sapiens) (UniProt P51449); assay: (§1) Transrepression of recombinant human GAL4-DBD fused RORgammat LBD expressed in HEK293 cells after 20 hrs by luciferase reporter gene assay; type: cell-based
T1 sequence (whole entry): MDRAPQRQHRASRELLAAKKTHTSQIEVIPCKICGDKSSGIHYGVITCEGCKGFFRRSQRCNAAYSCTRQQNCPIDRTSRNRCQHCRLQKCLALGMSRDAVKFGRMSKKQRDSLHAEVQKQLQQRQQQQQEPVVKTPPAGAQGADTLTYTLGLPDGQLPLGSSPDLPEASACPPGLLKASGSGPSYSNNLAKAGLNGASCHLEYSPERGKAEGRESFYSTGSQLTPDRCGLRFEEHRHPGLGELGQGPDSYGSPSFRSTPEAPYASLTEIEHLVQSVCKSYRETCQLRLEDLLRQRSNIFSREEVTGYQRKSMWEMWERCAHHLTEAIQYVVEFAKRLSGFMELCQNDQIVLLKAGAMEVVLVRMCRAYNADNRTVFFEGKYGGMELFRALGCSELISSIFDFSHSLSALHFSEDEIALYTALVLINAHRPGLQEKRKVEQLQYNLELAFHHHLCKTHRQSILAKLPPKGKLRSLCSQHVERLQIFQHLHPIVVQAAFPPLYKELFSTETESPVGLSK

[2] = biological target: T2, Nuclear receptor ROR-gamma (Homo sapiens, UniProt P51449); assay: as §1; type: cell-based
T2 sequence (P51449 whole entry): T1 sequence (whole entry)

[3] = biological target: T3, Nuclear receptor ROR-gamma (Mus musculus) (UniProt P51450); assay: (§2) Transrepression of recombinant mouse GAL4-DBD fused RORgammat LBD expressed in HEK293 cells after 20 hrs by luciferase reporter gene assay; type: cell-based
T3 sequence (whole entry): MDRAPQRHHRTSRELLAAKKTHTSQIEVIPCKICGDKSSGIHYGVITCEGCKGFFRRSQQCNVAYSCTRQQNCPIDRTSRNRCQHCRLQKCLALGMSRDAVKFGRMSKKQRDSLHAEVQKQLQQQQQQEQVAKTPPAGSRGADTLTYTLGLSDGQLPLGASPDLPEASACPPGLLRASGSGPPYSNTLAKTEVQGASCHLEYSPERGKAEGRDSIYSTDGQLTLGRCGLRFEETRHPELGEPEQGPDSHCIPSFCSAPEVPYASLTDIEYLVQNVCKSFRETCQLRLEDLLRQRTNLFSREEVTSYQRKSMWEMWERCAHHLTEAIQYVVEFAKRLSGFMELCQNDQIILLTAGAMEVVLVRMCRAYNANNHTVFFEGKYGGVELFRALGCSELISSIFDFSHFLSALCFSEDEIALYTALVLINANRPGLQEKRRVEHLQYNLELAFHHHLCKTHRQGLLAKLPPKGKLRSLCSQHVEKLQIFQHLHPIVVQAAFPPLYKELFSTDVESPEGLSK

[4] = biological target: T4, Nuclear receptor ROR-gamma (Mus musculus, UniProt P51450); assay: as §2; type: cell-based
T4 sequence (P51450 whole entry): T3 sequence (whole entry)

[5] = biological target: T2, Nuclear receptor ROR-gamma; assay: Displacement of [3H]-Digoxin from recombinant human GST-fused RORgammat LBD after 1 to 4 hrs by scintillation counting method
[6] = biological target: T4, Nuclear receptor ROR-gamma; assay: Transrepression of RORgammat in anti-CD3/CD28 stimulated C57BL/6 mouse CD4-positive T cells assessed as suppression of T cell differentiation to Th17 cells by measuring reduction in IL-17A level after 4 days by ELISA
[7] = Stability in human liver microsomes assessed as parent compound remaining after 2 hrs by LC-MS/MS analysis; type: ADME, microsome; conditions: read-out: Stability
[8] = Stability in rat liver microsomes assessed as parent compound remaining after 2 hrs by LC-MS/MS analysis; type: ADME, microsome; conditions: read-out: Stability
[9] = Solubility of the compound in NaCl/HCl buffer at pH 1.2 by shake-flask method; type: physicochemical
[10] = Solubility of the compound in KH2PO4/Na2HPO4 buffer at pH 6.8 by shake-flask method; type: physicochemical
[11] = biological target: T5, Nuclear receptor ROR-alpha (Homo sapiens, UniProt P35398); assay: Displacement of [3H]T0901317 from recombinant human GST-fused RORalpha LBD after 1 to 4 hrs by microbeta scintillation counting method
T5 sequence (P35398 whole entry): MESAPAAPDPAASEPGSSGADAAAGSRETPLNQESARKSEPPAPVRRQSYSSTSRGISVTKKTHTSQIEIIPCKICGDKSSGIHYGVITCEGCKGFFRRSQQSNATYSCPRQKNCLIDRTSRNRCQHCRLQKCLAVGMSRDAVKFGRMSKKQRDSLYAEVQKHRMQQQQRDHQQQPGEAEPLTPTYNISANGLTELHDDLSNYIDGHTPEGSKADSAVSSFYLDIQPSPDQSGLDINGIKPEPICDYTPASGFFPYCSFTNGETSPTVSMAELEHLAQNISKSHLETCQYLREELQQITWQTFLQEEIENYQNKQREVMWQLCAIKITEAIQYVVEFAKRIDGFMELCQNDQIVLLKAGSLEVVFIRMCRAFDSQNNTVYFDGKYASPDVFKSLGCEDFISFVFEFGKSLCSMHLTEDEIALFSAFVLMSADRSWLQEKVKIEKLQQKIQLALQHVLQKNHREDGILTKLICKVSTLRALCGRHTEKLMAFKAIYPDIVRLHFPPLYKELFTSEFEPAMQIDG

[12] = biological target: T6, Nuclear receptor ROR-beta (Homo sapiens, UniProt Q92753); assay: Transrepression of recombinant human GAL4-DBD fused RORbeta LBD expressed in HEK293 cells after 20 hrs by luciferase reporter gene assay; type: cell-based
T6 sequence (Q92753 whole entry): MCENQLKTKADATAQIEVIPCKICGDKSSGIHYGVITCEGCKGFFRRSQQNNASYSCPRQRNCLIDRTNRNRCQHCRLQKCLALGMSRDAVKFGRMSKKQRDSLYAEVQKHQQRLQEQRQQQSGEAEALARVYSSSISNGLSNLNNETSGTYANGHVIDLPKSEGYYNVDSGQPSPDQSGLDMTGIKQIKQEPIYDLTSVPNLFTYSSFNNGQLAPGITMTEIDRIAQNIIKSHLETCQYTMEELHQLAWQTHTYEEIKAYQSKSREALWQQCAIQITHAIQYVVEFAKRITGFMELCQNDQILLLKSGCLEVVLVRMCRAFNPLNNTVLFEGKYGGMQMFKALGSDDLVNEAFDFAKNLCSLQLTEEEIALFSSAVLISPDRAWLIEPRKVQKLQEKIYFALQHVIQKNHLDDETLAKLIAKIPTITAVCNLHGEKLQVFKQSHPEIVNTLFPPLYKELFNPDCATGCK

[13] = biological target: T7, Oxysterols receptor LXR-alpha (Homo sapiens, UniProt Q13133); assay: Transrepression of recombinant human GAL4-DBD fused LXRalpha LBD expressed in HEK293 cells after 20 hrs by luciferase reporter gene assay; type: cell-based
T7 sequence (Q13133 whole entry): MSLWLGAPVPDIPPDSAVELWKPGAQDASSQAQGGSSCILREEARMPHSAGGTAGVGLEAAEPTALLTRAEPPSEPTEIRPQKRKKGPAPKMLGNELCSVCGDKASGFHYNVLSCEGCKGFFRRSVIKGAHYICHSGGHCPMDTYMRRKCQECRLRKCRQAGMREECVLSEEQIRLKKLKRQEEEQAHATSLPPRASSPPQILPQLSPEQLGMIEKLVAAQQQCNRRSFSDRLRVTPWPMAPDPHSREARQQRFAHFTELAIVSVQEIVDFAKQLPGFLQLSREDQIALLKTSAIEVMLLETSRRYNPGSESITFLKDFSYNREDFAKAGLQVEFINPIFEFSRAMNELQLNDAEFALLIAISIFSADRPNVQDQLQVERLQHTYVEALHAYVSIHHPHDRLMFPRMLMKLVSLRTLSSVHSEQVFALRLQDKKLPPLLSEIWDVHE

[14] = biological target: T8, Oxysterols receptor LXR-beta (Homo sapiens, UniProt P55055); assay: Transrepression of recombinant human GAL4-DBD fused LXRbeta LBD expressed in HEK293 cells after 20 hrs by luciferase reporter gene assay; type: cell-based
T8 sequence (P55055 whole entry): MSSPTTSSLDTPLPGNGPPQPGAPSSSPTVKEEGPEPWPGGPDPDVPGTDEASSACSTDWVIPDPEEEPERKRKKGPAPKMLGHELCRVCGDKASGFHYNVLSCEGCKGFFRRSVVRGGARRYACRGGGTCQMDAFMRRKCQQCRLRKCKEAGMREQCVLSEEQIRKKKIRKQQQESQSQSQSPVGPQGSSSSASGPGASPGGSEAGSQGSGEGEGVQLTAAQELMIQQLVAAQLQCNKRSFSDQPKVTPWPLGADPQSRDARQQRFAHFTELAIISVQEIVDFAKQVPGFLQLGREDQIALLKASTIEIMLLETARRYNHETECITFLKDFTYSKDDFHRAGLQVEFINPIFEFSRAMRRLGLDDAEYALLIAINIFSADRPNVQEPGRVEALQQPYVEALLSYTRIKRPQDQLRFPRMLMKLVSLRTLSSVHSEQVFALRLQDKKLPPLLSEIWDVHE

Efficacy [1]: 93% | IC50 [2]: 33 nM | Efficacy [3]: 78% | IC50 [4]: 550 nM | IC50 [5]: < 30 nM | IC50 [6]: 1100 nM | remaining at 2 h [7]: 75% | remaining at 2 h [8]: 70% | solubility thermodynamic [9]: 39 µM (≈ 18.8 µg/mL) | solubility thermodynamic [10]: 31 µM (≈ 15 µg/mL) | IC50 [11]: > 10000 nM | IC50 [12]: > 10000 nM | EC50 [13]: > 30000 nM | EC50 [14]: > 30000 nM
SMILES: CCS(=O)(=O)c1ccc(CC(=O)Nc2ccc(C(C)(C)C(=O)Nc3ccc(F)cc3)cc2)cc1
